{
  "source": "patent US20020019372A1",
  "about": "(priority 2000, published 2002)",
  "key": {"[1]": {"system": "renal proximal tubular cells", "experiment": "Ouabain-insensitive oxygen consumption (QO2)", "type": "cell-based, rabbit", "conditions": "for decrease of ouabain-insensitive QO2: 24 hr after DCVC", "method": "(§1) Rabbit renal proximal tubules were isolated by iron oxide perfusion method and grown in 35 mm culture dishes in improved conditions as described previously (Nowak and Schnellmann, 1996). The purity of the renal proximal tubular S1 and S2 segments isolated by this method is approximately 96%. The culture medium was a 50:50 mixture of Dulbecco's modified Eagle's essential medium (DMEM) and Ham's F-12 nutrient mix without phenol red, pyruvate, and glucose, supplemented with 15 mM NaHCO3, 15 mM N-2hydroxyethylpiperazine-N′-2-ethanesulfonic acid, and 6 mM lactate (pH7.4, 295 mosmol/kg). Human transferrin (5 μg/ml), selenium (5 ng/ml), hydrocortisone (50 nM), bovine insulin (10 nM), and L-ascorbic acid-2-phosphate (0.05 mM or 0.5 mM) were added to the medium immediately before daily media change (2 ml/ dish).\n(§2) Renal proximal tubular cells monolayers reached confluence within 5 days and were treated with dichlorovinyl-L-cysteine (0.2 mM, 100 min) on day 6 of culture. Following dichlorovinyl-L-cysteine exposure, the remaining monolayer was washed with fresh medium and cultured for 4 days. Samples of renal proximal tubular cells were taken at various time points after dichlorovinyl-L-cysteine exposure for measurements of cellular functions. Prior to measurement of any functions, renal proximal tubular cells were washed with ice cold phosphate buffered saline (pH 7.4) or 37° C. culture media (for measurement of oxygen consumption, QO2) to remove non-viable cells.\n(§3) Washed renal proximal tubular cells monolayers were gently detached from the dishes with a rubber policeman, suspended in 37° C. culture medium and transferred to the oxygen consumption (QO2) measurement chamber. QO2 was measured polarographically using Clark type electrode as described previously (Nowak and Schnellmann, 1996; Nowak et al., 1998; Nowak et al., 1999). Ouabain-insensitive QO2 was measured in the presence of 0.1 mM ouabain and was calculated as a difference between basal and ouabain-insensitive QO2."}, "[2]": {"system": "renal proximal tubular cells", "experiment": "Basal oxygen consumption (QO2) as marker of mitochondrial function", "type": "cell-based, rabbit", "method": "as §1, §2, §3"}, "[3]": {"system": "renal proximal tubular cells", "conditions": "Nowak et al., 1999, cited from earlier work"}, "[4]": {"system": "α1 subunit of Na^+-K^+-ATPase", "experiment": "Immunocytochemical localization of Na+-K+-ATPase (confocal laser scanning microscopy)", "type": "cell-based, rabbit", "conditions": "for effect on Na+-K+-ATPase protein of the plasma membrane: DCVC 0.2 mM, independent of AscP concentration", "method": "as §1, §2\nAt various time points following dichlorovinyl-L-cysteine exposure, control and DCVC-treated renal proximal tubular cells monolayers were washed 3 times with ice-cold PBS and fixed in 3.7% formaldehyde. Following permeabilization with 100% methanol for 10 min at −20° C., renal proximal tubular cells monolayers were washed with PBS containing 0.1% BSA and 0.3% Triton X-100 (PBS/0.1% BSA/0.3% Triton X-100) for 15 min at room temperature. Blocking of non-specific binding was performed for 30 min in PBS containing 8% BSA. […]"}, "[5]": {"system": "renal proximal tubular cells", "experiment": "Monolayer DNA content as marker of renal proximal tubular cell proliferation after DCVC injury", "type": "cell-based, rabbit", "method": "as §1, §2\nMonolayer DNA content was used as a marker of renal proximal tubular cells proliferation. Monolayers were solubilized in 0.05 M Tris-HCl (pH 7.4) containing 0.15 M NaCl and 0.05% Triton X-100 and DNA determined in cell lysates by the method of Labarca and Paigen (1980) as described previously (Nowak and Schnellmann, 1996). Protein was measured by the method of Lowry et al. (1951)."}, "[6]": {"system": "renal proximal tubular cells", "experiment": "Ouabain-sensitive QO2 as marker of active Na+ transport", "type": "cell-based, rabbit", "method": "as §1, with “dish). […]” for “dish).”\nas §3"}, "[7]": {"conditions": "DCVC-injured RPTC, 0.5 mM AscP, day 4"}},
  "data": [
    {"compound": "N[C@@H](CSC(Cl)=CCl)C(=O)O", "note": "[dichlorovinyl-L-cysteine, S-(1,2dichlorovinyl)-L-cysteine]", "values": [
      {"measurement": "decrease of ouabain-insensitive QO2", "setting": "[1]; 0.05 mM AscP", "value": 32, "unit": "%"},
      {"measurement": "decrease of ouabain-insensitive QO2", "setting": "[1]; 0.5 mM AscP", "value": 50, "unit": "%"},
      {"measurement": "ouabain-insensitive QO2", "setting": "[1]; DCVC-treated RPTC, 24 hr, 0.05 mM AscP", "value": "6.6±2.6", "unit": "nmol O2/min/mg protein"},
      {"measurement": "ouabain-insensitive QO2", "setting": "[1]; DCVC-treated RPTC, 24 hr, 0.5 mM AscP", "value": "6.5±1.0", "unit": "nmol O2/min/mg protein"},
      {"measurement": "decrease of basal QO2", "setting": "[2]; 24 hr after DCVC, RPTC grown in 0.05 mM AscP", "value": 59, "unit": "%"},
      {"measurement": "decrease in mitochondrial function", "setting": "[2]; DCVC 0.2 mM, 100 min, independent of AscP concentration", "value": 54, "unit": "%"},
      {"measurement": "decrease of basal QO2", "setting": "[2]; after DCVC, RPTC grown in 0.5 mM AscP", "value": 62, "unit": "%"},
      {"measurement": "cell death and loss from the monolayer", "setting": "[3]; earlier study", "value": 30, "unit": "%"},
      {"measurement": "effect on Na+-K+-ATPase protein of the plasma membrane", "setting": "[4]", "value": "loss of Na^+-K^+-ATPase protein from the basolateral membrane"},
      {"measurement": "effect on Na+-K+-ATPase protein of the plasma membrane", "setting": "[4]; listed as DCVC", "value": "loss of the Na^+-K^+-ATPase protein from the basolateral domain"},
      {"measurement": "renal proximal tubular cells death and loss from the monolayer", "setting": "[5]; 24 hr after DCVC 0.2 mM, 100 min, independent of AscP 0.05 or 0.5 mM", "value": 60, "unit": "%"},
      {"measurement": "loss of monolayer DNA", "setting": "[5]; 24 hr after DCVC 0.2 mM, 100 min, regardless of AscP 0.05 or 0.5 mM", "value": 61, "unit": "%"}
    ]},
    {"compound": "O=C1O[C@H]([C@@H](O)CO)C(O)=C1OP(=O)([O-])[O-].[Mg+2]", "note": "[L-ascorbic acid phosphate, L-Ascorbic acid-2-phosphate magnesium salt]", "values": [
      {"measurement": "remaining decrease of ouabain-insensitive QO2", "setting": "[1]; DCVC-injured RPTC, through day 4, 0.05 mM AscP", "value": 45, "unit": "%"},
      {"measurement": "ouabain-insensitive QO2", "setting": "[1]; control RPTC without DCVC, 0.05 mM AscP", "value": "9.7±1.6", "unit": "nmol O2/min/mg protein"},
      {"measurement": "ouabain-insensitive QO2", "setting": "[1]; control RPTC without DCVC, 0.5 mM AscP", "value": "12.9±1.5", "unit": "nmol O2/min/mg protein"},
      {"measurement": "time of return of active Na+ transport to control levels", "setting": "[6]; DCVC-injured RPTC, pharmacological concentrations of AscP (discussion)", "value": "occurred on day 4"},
      {"measurement": "ouabain-sensitive QO2 in control RPTC, 0.05 vs 0.5 mM", "setting": "[6]; control RPTC without DCVC", "value": "equivalent"},
      {"measurement": "basal QO2 in control RPTC, 0.05 vs 0.5 mM", "setting": "[2]; control RPTC without DCVC", "value": "equivalent"},
      {"measurement": "basolateral Na+-K+-ATPase protein levels and distribution in control RPTC, physiological vs pharmacological concentration", "setting": "[4]; control RPTC without DCVC", "value": "no difference"},
      {"measurement": "proliferation and recovery of physiological functions and basolateral Na+-K+-ATPase expression", "setting": "[5]; DCVC-injured RPTC, 0.5 mM AscP, by day 4 (summary)", "value": "proliferated, recovered all examined physiological functions and the basolateral membrane expression of Na^+-K^+-ATPase by day 4"},
      {"measurement": "increase of monolayer DNA content", "setting": "[5]; DCVC-injured RPTC, 0.5 mM AscP, day 2", "value": 1.6, "unit": "fold"},
      {"measurement": "increase of monolayer DNA content", "setting": "[5]; [7]", "value": 2.3, "unit": "fold"},
      {"measurement": "monolayer DNA content relative to controls", "setting": "[5]; [7]", "value": "81 % of controls"},
      {"measurement": "monolayer DNA content in control RPTC, 0.05 vs 0.5 mM", "setting": "[5]; control RPTC without DCVC", "value": "equivalent"}
    ]},
    {"compound": "EGF: epidermal growth factor, 10 ng/ml daily treatments", "values": [
      {"measurement": "effect on inhibition of RPTC regeneration after DCVC-induced injury", "setting": "[3]; daily treatments, 10 ng/ml", "value": "can be overcome"}
    ]}
  ]
}
